Source: PubChem BioAssay AID220 (DTP/NCI, 2004)
Values joined by “and” are separate entries in the source; they are usually repeats but may differ in a detail not shown here. Equal entries are not always repeated. Inconclusive results are not listed.

Tested on: CD8F1 mice, subcutaneous mammary adenocarcinoma, T/C%
Experiment: NCI In Vivo Anticancer Drug Screen. Data for tumor model Mammary Adenocarcinoma CD8F1 (subcutaneous) in CD8F1
Conditions: higher = larger tumour
Method in brief: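 Mice carrying transplanted tumors received test compound, and survival or tumor size was recorded. Each value is the treated-group measurement divided by the corresponding measurement in vehicle-dosed controls.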

[1] = endpoint: median tumor weight (est.), dose: 12.5 mg/kg/injection, schedule: Q07DX005 (ip), vehicle: saline with Tween-80
[2] = endpoint: median tumor weight (est.), dose: 16.0 mg/kg/injection, schedule: Q07DX005 (ip), vehicle: saline with Tween-80
[3] = endpoint: median tumor weight (est.), dose: 64.0 mg/kg/injection, schedule: Q07DX005 (ip), vehicle: saline with Tween-80
[4] = endpoint: median tumor weight (est.), dose: 25.0 mg/kg/injection, schedule: Q07DX005 (ip), vehicle: saline
[5] = endpoint: median tumor weight (est.), dose: 50.0 mg/kg/injection, schedule: Q07DX005 (ip), vehicle: saline

For `COc1cc2cc(c1Cl)N(C)C(=O)C[C@H](OC(=O)[C@H](C)N(C)C(C)=O)[C@]1(C)O[C@H]1[C@H](C)[C@@H]1C[C@@](O)(NC(=O)O1)[C@H](OC)C=C/C=C(\C)C2`, the T/C (endpoint: median tumor weight (est.), dose: 0.03 mg/kg/injection, schedule: Q07DX005 (ip), vehicle: Klucel (hydroxypropylcellulose) (HPC)) was 167 % of control, the T/C (endpoint: median tumor weight (est.), dose: 0.06 mg/kg/injection, schedule: Q07DX005 (ip), vehicle: Klucel (hydroxypropylcellulose) (HPC)) was 151 % of control and the T/C (endpoint: median tumor weight (est.), dose: 0.12 mg/kg/injection, schedule: Q07DX005 (ip), vehicle: Klucel (hydroxypropylcellulose) (HPC)) was 264 % of control. For the same compound, the T/C (endpoint: median tumor weight (est.), dose: 0.25 mg/kg/injection, schedule: Q07DX005 (ip), vehicle: Klucel (hydroxypropylcellulose) (HPC)) was 188 % of control, the T/C (endpoint: median tumor weight (est.), dose: 62.0 micrograms/kg/injection, schedule: Q07DX005 (ip), vehicle: Klucel (hydroxypropylcellulose) (HPC)) was 54 % of control and the T/C (endpoint: median tumor weight (est.), dose: 125.0 micrograms/kg/injection, schedule: Q07DX005 (ip), vehicle: Klucel (hydroxypropylcellulose) (HPC)) was 77 % of control. The T/C (endpoint: median tumor weight (est.), dose: 250.0 micrograms/kg/injection, schedule: Q07DX005 (ip), vehicle: Klucel (hydroxypropylcellulose) (HPC)) was 110 % of control, the T/C (endpoint: median tumor weight (est.), dose: 500.0 micrograms/kg/injection, schedule: Q07DX005 (ip), vehicle: Klucel (hydroxypropylcellulose) (HPC)) was 93 % of control and the T/C (endpoint: median tumor weight change, dose: 125.0 micrograms/kg/injection, schedule: Q01DX001 (ip), vehicle: Klucel (hydroxypropylcellulose) (HPC)) was 67 % of control. The T/C (endpoint: median tumor weight change, dose: 500.0 micrograms/kg/injection, schedule: Q01DX001 (ip), vehicle: Klucel (hydroxypropylcellulose) (HPC)) was 29 % of control and 35 % of control, the T/C (endpoint: median tumor weight change, dose: 1000.0 micrograms/kg/injection, schedule: Q01DX001 (ip), vehicle: Klucel (hydroxypropylcellulose) (HPC)) was 3 % of control and 21 % of control and the T/C (endpoint: median tumor weight change, dose: 2000.0 micrograms/kg/injection, schedule: Q01DX001 (ip), vehicle: Klucel (hydroxypropylcellulose) (HPC)) was 12 % of control.
For `C=CC(=O)N1CN(C(=O)C=C)CN(C(=O)C=C)C1`, the T/C (endpoint: median tumor weight (est.), dose: 3.12 mg/kg/injection, schedule: Q07DX005 (ip), vehicle: saline with Tween-80) was 89 % of control, the T/C (endpoint: median tumor weight (est.), dose: 6.25 mg/kg/injection, schedule: Q07DX005 (ip), vehicle: saline with Tween-80) was 111 % of control and the T/C [1] was 31 % of control.
With `Cc1ccc(S(=O)(=O)NC(=O)OC23COCN2COC3)cc1` the T/C (endpoint: median tumor weight change, dose: 125.0 mg/kg/injection, schedule: Q01DX001 (ip), vehicle: water) was 170 % of control, the T/C (endpoint: median tumor weight change, dose: 250.0 mg/kg/injection, schedule: Q01DX001 (ip), vehicle: saline with Tween-80) was 111 % of control and the T/C (endpoint: median tumor weight change, dose: 500.0 mg/kg/injection, schedule: Q01DX001 (ip), vehicle: saline with Tween-80) was 90 % of control. For the same compound, the T/C (endpoint: median tumor weight change, dose: 500.0 mg/kg/injection, schedule: Q01DX001 (ip), vehicle: water) was 162 % of control, the T/C (endpoint: median tumor weight change, dose: 1000.0 mg/kg/injection, schedule: Q01DX001 (ip), vehicle: water) was 222 % of control and the T/C (endpoint: median tumor weight change, dose: 2000.0 mg/kg/injection, schedule: Q01DX001 (ip), vehicle: saline with Tween-80) was 74 % of control. The T/C (endpoint: median tumor weight change, dose: 2000.0 mg/kg/injection, schedule: Q01DX001 (ip), vehicle: water) was 184 % of control.
For `Clc1ccc(C2SC=Cc3ccccc32)cc1` (stereo unspecified), the T/C (endpoint: median tumor weight change, dose: 62.0 mg/kg/injection, schedule: Q01DX001 (ip), vehicle: Klucel (hydroxypropylcellulose) (HPC)) was 88 % of control and the T/C (endpoint: median tumor weight change, dose: 250.0 mg/kg/injection, schedule: Q01DX001 (ip), vehicle: Klucel (hydroxypropylcellulose) (HPC)) was 50 % of control and 54 % of control and 58 % of control.
With `CCCCNC(C)C1(O)Cc2c(O)c3c(c(O)c2C(OC2CC(N)C(O)C(C)O2)C1)C(=O)c1c(OC)cccc1C3=O` (stereo unspecified) the T/C (endpoint: median tumor weight (est.), dose: 28.5 mg/kg/injection, schedule: Q07DX005 (ip), vehicle: water) was 100 % of control, the T/C (endpoint: median tumor weight (est.), dose: 42.7 mg/kg/injection, schedule: Q07DX005 (ip), vehicle: water) was 154 % of control and the T/C (endpoint: median tumor weight (est.), dose: 64.0 mg/kg/injection, schedule: Q07DX005 (ip), vehicle: water) was 66 % of control. For the same compound, the T/C (endpoint: median tumor weight (est.), dose: 96.0 mg/kg/injection, schedule: Q07DX005 (ip), vehicle: water) was 20 % of control, the T/C (endpoint: median tumor weight change, dose: 62.5 mg/kg/injection, schedule: Q01DX001 (ip), vehicle: suspension in saline) was 98 % of control and the T/C (endpoint: median tumor weight change, dose: 125.0 mg/kg/injection, schedule: Q01DX001 (ip), vehicle: suspension in saline) was 65 % of control. The T/C (endpoint: median tumor weight change, dose: 250.0 mg/kg/injection, schedule: Q01DX001 (ip), vehicle: suspension in saline) was 74 % of control, the T/C (endpoint: median tumor weight change, dose: 500.0 mg/kg/injection, schedule: Q01DX001 (ip), vehicle: suspension in saline) was 15 % of control and the T/C (endpoint: median tumor weight change, dose: 1000.0 mg/kg/injection, schedule: Q01DX001 (ip), vehicle: suspension in saline) was 3 % of control.
In the case of `COc1cc2c(ccc3c4cc(OC)c(OC)cc4c[n+](C)c23)cc1O`, the T/C (endpoint: median tumor weight change, dose: 250.0 mg/kg/injection, schedule: Q01DX001 (ip), vehicle: saline) is reported as 190 % of control, the T/C (endpoint: median tumor weight change, dose: 1000.0 mg/kg/injection, schedule: Q01DX001 (ip), vehicle: saline) is reported as 89 % of control and the T/C (endpoint: median tumor weight change, dose: 2000.0 mg/kg/injection, schedule: Q01DX001 (ip), vehicle: saline) is reported as 121 % of control.
`CC[C@@H](C)[C@@H]1NC(=O)C(NC(=O)C(CC(C)C)N(C)C(=O)C2CCCN2C(=O)C(C)O)C(C)OC(=O)C(Cc2ccc(OC)cc2)N(C)C(=O)C2CCCN2C(=O)C(CC(C)C)NC(=O)C(C)C(=O)C(C(C)C)OC(=O)C[C@H]1O` (stereo partly specified) was tested, and the T/C (endpoint: median tumor weight change, dose: 20.0 micrograms/kg/injection, schedule: Q01DX001 (ip), vehicle: distilled water + alcohol) was 73 % of control, the T/C (endpoint: median tumor weight change, dose: 40.0 micrograms/kg/injection, schedule: Q01DX001 (ip), vehicle: distilled water + alcohol) was 55 % of control and the T/C (endpoint: median tumor weight change, dose: 300.0 micrograms/kg/injection, schedule: Q01DX001 (ip), vehicle: distilled water + alcohol) was 63 % of control. For the same compound, the T/C (endpoint: median tumor weight change, dose: 320.0 micrograms/kg/injection, schedule: Q01DX001 (ip), vehicle: distilled water + alcohol) was 88 % of control, the T/C (endpoint: median tumor weight change, dose: 600.0 micrograms/kg/injection, schedule: Q01DX001 (ip), vehicle: distilled water + alcohol) was 71 % of control and the T/C (endpoint: median tumor weight change, dose: 1200.0 micrograms/kg/injection, schedule: Q01DX001 (ip), vehicle: distilled water + alcohol) was 37 % of control.
`CC1=C(/C=C/C(C)=C/C=C/C(C)=C/C(=O)O)C(C)(C)CCC1` was tested, and the T/C (endpoint: median tumor weight (est.), dose: 8.0 mg/kg/injection, schedule: Q07DX005 (ip), vehicle: saline with Tween-80) was 47 % of control, the T/C [2] was 71 % of control and the T/C [3] was 92 % of control and 106 % of control. For the same compound, the T/C (endpoint: median tumor weight (est.), dose: 256.0 mg/kg/injection, schedule: Q07DX005 (ip), vehicle: saline with Tween-80) was 49 % of control.
For `NC(=S)N/N=C/c1ccc(O)cn1`, the T/C (endpoint: mean tumor weight, dose: 12.5 mg/kg/injection, schedule: Q07DX005 (ip), vehicle: saline with Tween-80) was 101 % of control, the T/C (endpoint: mean tumor weight, dose: 25.0 mg/kg/injection, schedule: Q07DX005 (ip), vehicle: saline with Tween-80) was 75 % of control and the T/C (endpoint: mean tumor weight, dose: 50.0 mg/kg/injection, schedule: Q07DX005 (ip), vehicle: saline with Tween-80) was 58 % of control. For the same compound, the T/C (endpoint: mean tumor weight, dose: 100.0 mg/kg/injection, schedule: Q07DX005 (ip), vehicle: saline with Tween-80) was 49 % of control, the T/C (endpoint: mean tumor weight, dose: 200.0 mg/kg/injection, schedule: Q07DX005 (ip), vehicle: saline with Tween-80) was 63 % of control and the T/C [1] was 106 % of control. The T/C [4] was 59 % of control, the T/C (endpoint: median tumor weight (est.), dose: 50.0 mg/kg/injection, schedule: Q07DX005 (ip), vehicle: saline with Tween-80) was 85 % of control and the T/C [5] was 76 % of control. The T/C (endpoint: median tumor weight (est.), dose: 100.0 mg/kg/injection, schedule: Q07DX005 (ip), vehicle: saline with Tween-80) was 124 % of control, the T/C (endpoint: median tumor weight (est.), dose: 100.0 mg/kg/injection, schedule: Q07DX005 (ip), vehicle: saline) was 105 % of control and the T/C (endpoint: median tumor weight (est.), dose: 200.0 mg/kg/injection, schedule: Q07DX005 (ip), vehicle: saline with Tween-80) was 60 % of control. For the same compound, the T/C (endpoint: median tumor weight (est.), dose: 200.0 mg/kg/injection, schedule: Q07DX005 (ip), vehicle: saline) was 64 % of control, the T/C (endpoint: median tumor weight (est.), dose: 400.0 mg/kg/injection, schedule: Q07DX005 (ip), vehicle: saline with Tween-80) was 52 % of control and the T/C (endpoint: median tumor weight (est.), dose: 400.0 mg/kg/injection, schedule: Q07DX005 (ip), vehicle: saline) was 44 % of control. For the same compound, the T/C (endpoint: median tumor weight (est.), dose: 800.0 mg/kg/injection, schedule: Q07DX005 (ip), vehicle: saline) was 2 % of control.
`CCN(CC)CCNc1ccc(C)c2sc3ccc(O)cc3c(=O)c12` was tested, and the T/C (endpoint: median tumor weight change, dose: 62.5 mg/kg/injection, schedule: Q01DX001 (ip), vehicle: saline with Tween-80) was 59 % of control, the T/C (endpoint: median tumor weight change, dose: 125.0 mg/kg/injection, schedule: Q01DX001 (ip), vehicle: saline with Tween-80) was 169 % of control and the T/C (endpoint: median tumor weight change, dose: 684.0 mg/kg/injection, schedule: Q01DX001 (ip), vehicle: saline with Tween-80) was 37 % of control.
In the case of `O=C(NP(=O)(N1CC1)N1CC1)c1cc(I)ccc1I`, the T/C [2] is reported as 68 % of control, the T/C (endpoint: median tumor weight (est.), dose: 32.0 mg/kg/injection, schedule: Q07DX005 (ip), vehicle: saline with Tween-80) is reported as 77 % of control and the T/C [3] is reported as 49 % of control. For the same compound, the T/C (endpoint: median tumor weight (est.), dose: 128.0 mg/kg/injection, schedule: Q07DX005 (ip), vehicle: saline with Tween-80) was 6 % of control.
With `Cc1cn(C2CC(O)C(CO)O2)c(=O)[nH]c1=O` (stereo unspecified) the T/C [4] was 88 % of control and the T/C [5] was 107 % of control.
